Publication PMC10731658 (Chemical Research in Toxicology, 2023)

Legend:
HepG2 cells [1] = test: Total intracellular MDA by LC-MS/MS; type: cell-based, human; conditions: IC50 concentration
HepG2 cells [2] = test: Intracellular nonprotein thiols (NP-SH) by HPLC-UV; type: cell-based, human; conditions: 24 h, IC50 concentration
Method: The culture medium was removed from a 25 cm^2 culture flask on the day of the experiment, and cells were washed twice with 3 mL of phosphate-buffered saline (PBS; GE Healthcare Life Sciences, South Logan, UT). Subsequently, 3 mL of a plain DMEM medium (negative control) and a DMEM medium containing TBHP (positive control) or individual oximes were added to each flask, and cells were incubated for 1, 4, and 24 h. The concentration of individual oxime and TBHP in the DMEM medium corresponded to the IC50 value. After incubation, the experimental medium was removed, and cells were washed with 3 mL of PBS and harvested by scraping. The resulting suspension was centrifuged at 220g and 21 °C for 5 min (Universal 320R centrifuge, Hettich, Tuttlingen, Germany). The supernatant was removed and dried cell pellets were stored at −80 °C. Each experiment was carried out in three independent replicates.
The cell pellets were thawed at room temperature, resuspended in 500 μL of ultrapure water (Millipore Purification System, Merck, Millipore, Darmstadt, Germany), and sonicated for 2 min (2 s cycle, amplitude 20%) in a Q500 homogenizer (QSONICA Sonicators, Newton). Then, the homogenate was divided into three parts: 250 μL for the determination of malondialdehyde (MDA), 100 μL for each determination of nonprotein thiols (NP-SH) and disulfides (NP-SS-NP), and 10 μL for the Bradford protein assay.
The HepG2 cell homogenate obtained, as described in Section 2.6, was processed for the determination of intracellular NP-SH and NP-SS-NP, according to Muckova et al.[11] The samples were analyzed using the HPLC system described above equipped with an SPD 20-AV Prominence UV/vis detector. The analysis was carried out on a Phenomenex LUNA C18 column (150 mm × 3 mm, 3 μm, 100 Å) protected with a Security Cartridge (4 mm × 2 mm, Phenomenex, Torrance) at 30 °C and a constant flow rate of 0.330 mL/using the mobile phase consisting of 0.9% aqueous FA (A) and ACN (B) under gradient conditions: 0–1 min 12% B, 1.1–2 min 12–55% B, 2–7 min 55% B, 7.1 min 55% B, and 7.1–10 min 12% B. The detector was set at 326 nm and the sample injection volume was 20 μL.

HepG2 cells [3] = test: Flow cytometric detection of cell death (Annexin V & Dead Cell Assay); type: cell-based, human; conditions: IC50 concentration
From the text: 2. Flow cytometric detection of cell death
The microcapillary flow cytometry (Muse™ Cell Analyzer, Luminex, Austin, TX) was used to determine cell death.
This method is based on detecting externalization of phosphatidylserine on the surface of cells undergoing apoptosis.
The technique allows quantitative analysis of non-apoptotic, early apoptotic, late apoptotic, and necrotic cells. The reagent mixture also contains the membrane non-permeable dye 7-aminoactinomycin D. This component distinguishes necrotic and late apoptotic cells from the live and early apoptotic cells. The measurement of cell death was carried out according to manufacturer instructions after 1, 4, and 24 h incubation with tested oxime reactivators and with oxime-free medium as an untreated control. During the first day of the experiment, cells were seeded into a 24-well plate (TPP) with a density of […]. After the incubation, cells from each well were collected into the polystyrene tube (TPP) and centrifuged for 5 min at 1000 × g at room temperature. The supernatant was discarded. The cell suspensions […]
were prepared in fresh medium DMEM. Afterward 100 μL of cell suspension were mixed with the 100 μL of Muse™ Annexin V & Dead Cell Assay reagent, and the samples were incubated for 20 min at room temperature in the dark.
Per measurement, 5000 cells were analyzed. Each experiment was performed in triplicates and repeated three independent times. The concentration of K048, K074, K075, and K203 oximes and TBHP (positive control) used in […]
After 1 h of incubation (Figure S-1.) with tested oxime reactivators and TBHP as the positive control, the percentage […]
A significant change in the percentage of
The amount of early apoptotic cells
. On the other hand, the percentage of late apoptotic cells was […]
control cells. The count of late apoptotic cells enlarged by 7.74, 4.71 , 4.17, 4.13, and 3.20 %, respectively. The statistical differences were also found in the percentage of necrotic cells in this time interval. The highest increment […]
K048, K074, K075, and K203 groups when compared with control.
K075, and K203 treated groups, respectively, when compared with control. Finally, the percentage of necrotic cells […]
Fig. S-1 The percentage of intact (white column), early (light grey column), late apoptotic (dark grey column), and necrotic HepG2 cells (black column) determined using microcapillary flow cytometry after 1 h, 4 h and 24 h treatment with oxime acetylcholinesterase reactivators or TBHP (positive control). Control represents the cells incubated with an oxime-free culture medium. One-way analysis of variance (ANOVA) followed by Dunnetʼs multiple comparison test was used for statistical analysis by GraphPad Prism 9 software version 9.3.0. Data are expressed as means ± standard deviation (SD) of three independent measurements (n = 3). Significant differences between oxime-treated and untreated control groups (p ≤ 0.05) and marked by asterisk (*).
3. Stability of oximes in DMEM medium at 37 °C over 24 hours
The stability of oximes K048, K074, K075, and K203 in DMEM medium, with concentrations corresponding to their […]
UV, following the chromatographic conditions described by Vanova et al. (2021)13. The results over the tested time […]
Fig. S-2 Data are expressed in percentage as means ± standard deviation (SD) of three independent measurements […]

[4] = Colorimetric MTT cell viability assay, 24 h; conditions: human, HepG2 cells, IC50 (cytotoxicity, MTT assay), 24 h incubation
HepG2 cells [5] = test: Colorimetric MTT cell viability assay, 24 h; conditions: read-out: IC50 (cytotoxicity, MTT assay), 24 h incubation

SMILES | increase of MDA levels vs untreated control (HepG2 cells [1]; 4 h incubation) | increase of MDA levels vs untreated control (HepG2 cells [1]; 24 h exposure) | decrease in NP-SH levels vs untreated control (HepG2 cells [2]) | decrease in percentage of intact (live) cells vs control (HepG2 cells [3]; 1 h) | increase in early apoptotic cells vs control (HepG2 cells [3]; 1 h) | increase in late apoptotic cells vs control (HepG2 cells [3]; 1 h) | decrease in percentage of live cells vs control (HepG2 cells [3]; 4 h) | increase in early apoptotic cells vs control (HepG2 cells [3]; 4 h) | increase in late apoptotic cells vs control (HepG2 cells [3]; 4 h) | increase in necrotic cell population vs control (HepG2 cells [3]; 4 h) | decrease in percentage of intact cells vs control (HepG2 cells [3]; 24 h) | increase in early apoptotic cells vs control (HepG2 cells [3]; 24 h) | increase in late apoptotic cells vs control (HepG2 cells [3]; 24 h) | IC50 at 24 h [4] | IC50 (HepG2 cells [5]) | increase in necrotic cells vs control (HepG2 cells [3]; 1 h)
NC(=O)c1cc[n+](CCCC[n+]2ccc(C=NO)cc2)cc1.[Br-].[Br-] [K048, 4-carbamoyl-1-(4-(4-((hydroxyimino)methyl)pyridin-1-ium-1-yl)butyl)pyridin-1-ium dibromide] | 17.2% | 35.4% | 11.4% | ~9.71% | about 5.05% | 4.17% | 11.2% | 5.72% | 4.35% | 1.17% | 45.6% | 18.2% | 26.2% | ~30 mM | 30.6 mM | 
O/N=C/c1cc[n+](CCCC[n+]2ccc(/C=N/O)cc2)cc1 [K074, 1,1′-(butane-1,4-diyl)bis(4((hydroxyimino)methyl)pyridine-1-ium) dibromide] | 23.6% | 36.1% | 11.6% | ~8.85% | ~2.45% | 4.71% | 8.3% | 4.17% | 3.47% | 0.67% | 45.5% | 14.1% | 31.3% | ~27 mM | 27.2 mM | 1.69%
